Results as given in patent US6410545B1, “Lipid lowering quinazoline dietary supplement composition” (Parker Hughes Institute, priority 1998, dated 2002).

Assays:
C57B⅙ mice = experiment: Blood chemistry, weight and histopathology of treated C57B⅙ mice; assay type: in vivo
Method: […] A range of doses was administered. Control animals received vehicle alone. The effect of quinazoline derivatives on total cholesterol, LDL, HDL, liver enzymes, and glucose was analyzed. The mice tissues were also examined histologically.
Serum levels alanine aminotransferase (ALT), alkaline phosphatase (ALP), lactate dehydrogenase (LDH), blood urea nitrogen (BUN), creatinine, creatinine phosphokinase (CPK), and glucose were determined by using a Synchron CX5 Clinical System (Beckman Instruments, Inc., Fullerton, Calif.) following manufacturer's instructions. For the glucose tolerance test, blood glucose levels were determined using the portable One Touch Profile glucose meter (Lifescan, Milpitas, Calif., USA).
At the end of the experiment, the animals were sacrificed and the harvested tissues were fixed in 10% phosphate buffered formalin overnight, embedded, sectioned, and stained by hematoxylin and eosin (H&E). The stained sections were examined for pathological changes. For Oil Red O staining, the liver was excised and snap frozen in liquid nitrogen. Five micrometer thick sections were obtained using the LeicaCM1800 cryostat (Heerbrugg, Switzerland), stained in 0.5% Oil Red O in propylene glycol for 1 hour, destained in 85% propylene glycol for 1 minute, rinsed twice in distilled water, counterstained in Mayer's hematoxylin for a few seconds, rinsed twice in distilled water, and mounted in Crystalmount (Biomedia Corp., Foster City, Calif.). The Oil Red O stainable material at 400 X magnification was quantitated using the ImagePro plus program (Media Cybernetics, Silver Spring, Md., USA) in conjunction with a 3CCD camera (DAGE-MTI Inc., Michigan City, USA).

[1] = test system: hypercholesterolemic C57B⅙ mice; experiment: Serum lipoprotein profile (VLDL-C, HDL-C) by FPLC in C57B⅙ mice on cocoa butter diet; assay type: in vivo; settings: for HDL-C / VLDL-C: C57B1/6, cocoa butter diet
Method: Three- to four-week old C57B⅙ male mice (Taconic, Germantown, N.Y., USA) were kept in micro-isolator cages on a 12-hour day/night cycle and fed the Paigen's cocoa butter diet (15.8% fat, 1.25% cholesterol, and 0.5% sodium cholate) (Harlan Teklad, Madison, Wis., USA) for two weeks prior to initiation of lipid lowering therapy. Paigen's diet is described in Nishina et.al., 1993, J. Lipid Res. 34: 1413-1422.
Animals were treated with test compounds by intraperitoneal injection daily for 7 days. A range of doses was administered. Control animals received vehicle alone. The effect of quinazoline derivatives on total cholesterol, LDL, HDL, liver enzymes, and glucose was analyzed. The mice tissues were also examined histologically.
Serum cholesterol profiles were examined by Fast Protein Liquid Chromatography (FPLC) using 100 μl of serum per run. The serum was passed over two Superose™ 6 HR 10/30 connected in tandem equilibrated in phosphate buffered saline (PBS), using the FPLC system from Pharmacia Biotech (Piscataway, N.J., USA) consisting of a controller LCC-501 plus connected to a UV detector (UV-MII), two P500 pumps, and a Frac-100 fraction collector. The FPLC was remotely controlled and operated by the FPLC director program operated on an IBM computer. The system was operated at a flow rate of 0.5 ml/minute and fractions were collected at 0.5 ml/fraction. Cholesterol concentration of each fraction was determined as described above and plotted against the fraction numbers to obtain the serum cholesterol profile.
To determine the serum concentrations of LDL/β-VLDL and HDL, the sums of the LDL/β-VLDL peak (fractions 29-35) and the HDL peak (fractions 53-63) were divided by 0.1. To obtain the IC50 and the minimum β-VLDL and HDL concentrations, the concentrations of β-VLDL and HDL were plotted against the dosage. Best fitted exponential decay curves were obtained using the equation: Concentration of HDL or LDL/β-VLDL=Aexp(−BX)+E, where A+E equals the concentration of HDL or LDL/β-VLDL at the dosage of 0 μg/day and E equals the mathematical minimum concentration of HDL or β-VLDL, and B equals 0.69/IC50. Best fitted curves were obtained using the Graphpad Inplot program, Graphpad Software, San Diego, Calif., USA.
As shown by their serum lipoprotein profiles (FIG. 1), hypercholesterolemic C57B⅙ mice preferentially accumulated cholesterol rich VLDL (171±19 mg/dL, n=4 versus 7±4 mg/dL, n=3, p=0.0008) but no changes in HDL cholesterol levels (90±9 mg/dL, n=4 versus 86±13 mg/dL, n=3, p=0.8) (Table 2). […] In WHI-P164 treated mice, serum VLDL-C decreased immediately from 171±19 mg/dL (n=4), to 99±13 mg/dL (n=4) at the 1.6 mg/kg/day dose level (P=0.02) and further decreased to 78±15 mg/dL (n=4) at the 16 mg/kg/day dose level (p=0.1) (Table 1). […] Thus, WHI-P164 was only able to reduce VLDL-C by […].

[2] = C57B⅙ mice, indicated dose levels

In the case of `COc1cc2ncnc(C(=O)c3cccc(Br)c3)c2cc1OC` [WHI-P164, 4-(3′-bromobenzoyl)-6,7-dimethoxyquinazoline], the “Histopathologic examination of tissues” value (C57B⅙ mice; [2]) is reported as “did not reveal any drug related toxic lesions”, the “Liver enzymes (ALT, ALP, LDH) and BUN/Creatinine” value (C57B⅙ mice; [2]) is reported as “remained within normal limits” and the “Clinical or laboratory signs of toxicity” value (C57B⅙ mice; C57B⅙ mice, indicated dose levels (1.6-16 mg/kg/day)) is reported as “not associated with any obvious clinical or laboratory signs of toxicity”. The ALP (C57B⅙ mice; treated C57B1/6 mice, 1 week) was 101 ± 3 IU/L, the BUN (C57B⅙ mice; treated C57B1/6 mice, 1 week) was 25.4 ± 2.0 mg/dL and the Glucose (C57B⅙ mice; treated C57B1/6 mice, 1 week) was 201 ± 18 mg/dL. For the same compound, the LD-L (C57B⅙ mice; treated C57B1/6 mice, 1 week) was 1402 ± 144 IU/L, the Net weight change (C57B⅙ mice; treated C57B1/6 mice, 1 week) was -0.26 ± 0.22 g and the ALP (C57B⅙ mice; treated C57B1/6 mice, 2 weeks) was 94 ± 10 IU/L. The ALT (C57B⅙ mice; treated C57B1/6 mice, 2 weeks) was 148 ± 54 IU/L, the LD-L (C57B⅙ mice; treated C57B1/6 mice, 2 weeks) was 459 ± 83 IU/L and the Net weight change (C57B⅙ mice; treated C57B1/6 mice, 2 weeks) was 1.88 ± 0.42 g. It also gave an HDL-C ([1]; dose 1.6 mg/kg) of 93 ± 8 mg/dL, a VLDL-C ([1]; dose 1.6 mg/kg/day) of 99 ± 13 mg/dL and an HDL-C ([1]; dose 4.0 mg/kg) of 86 ± 5 mg/dL. It also gave a VLDL-C ([1]; dose 4.0 mg/kg) of 106 ± 15 mg/dL, an HDL-C ([1]; dose 8.0 mg/kg) of 81 ± 9 mg/dL and a VLDL-C ([1]; dose 8.0 mg/kg) of 101 ± 7 mg/dL. The HDL-C ([1]; dose 16.0 mg/kg) was 74 ± 10 mg/dL, the VLDL-C ([1]; dose 16 mg/kg/day) was 78 ± 15 mg/dL and the “Effect on serum HDL-C levels” value ([1]; C57B⅙ mice, cocoa butter diet) was “did not significantly affect”. The “Calculated effective dose (ED50) for VLDL-C lowering” value ([1]; C57B⅙ mice, cocoa butter diet, fitted exponential decay curve) was 0.4 mg/kg/day, the “Minimum serum VLDL-C level” value ([1]; C57B⅙ mice, cocoa butter diet, mathematical minimum of fitted curve) was 94 ± 9 mg/dL and the “Reduction of VLDL-C” value ([1]; C57B⅙ mice, cocoa butter diet, maximal reduction) was 45%. The “Reduction of LDL-C” value ([1]; hypercholesterolemic C57B⅙ mice on a high calorie diet) was 45%.
